Series [1] can be described thus: Stability studies at room temperature in 5% aqueous mannitol. The class given is physicochemical. The settings on record: dihydrochloride/ethanol complex, storage for 100 h. The procedure: Stability studies at room temperature were conducted with from 0.1 mg/L to 15 mg/L of the dihydrochloride/ethanol complex in 5% aqueous mannitol (to provide for isotonicity). […] For instance, about 2.5% compound 11 is degraded after storage for 100 h of a solution comprising 15 mg compound per liter, while about 5% of the compound is degraded in a solution comprising 2 mg compound per liter, and about 13 of the compound in a solution comprising 0.1 mg compound per liter.

The nature of series [2]: Intravenous tolerability / systemic toxicity in NMRI mice. It counts as in vivo. The following applies: mouse, in vivo, iv, injected intravenously, read-out: maximally tolerated dose (MTD). The procedure:
(§1) The compound of the invention (compound 11) was injected intravenously in NMRI mice. […] The compound was rapidly distributed and finally eliminated with a half-life of 4˜5 h. The systemic toxicity of the compound of the invention is low.

The subject of series [3] is NMRI mice. The description is as above. The class given is in vivo. The procedure: as §1
Series [4] is described as follows: Plasma pharmacokinetics after intravenous injection in NMRI mice. The class given is in vivo. The procedure: as §1

Where only a bound is given, the exact number is not on record here.

Usually MTD stands for the highest dose tested that stayed within the study's limit of toxicity. As usually defined, the half-life is the time in which the quantity being followed falls by half. With `C/C(=N/Nc1ccc2c(n1)[nH]c1c(C)cccc12)c1ccccn1` [compound 11, 2-[(1Z)-1-(2-{8-Methyl-8H, 8aH, 9H-pyrido[2,3-b]indol-2-yl}hydrazin-1-ylidene)ethyl]-pyridine], the results for the compound degraded result in series [1] (0.1 mg compound per liter), in series [1] (2 mg compound per liter) and in series [1] (15 mg compound per liter) were “about 13”, “about 5%” and “about 2.5%”, respectively. Moreover, in series [2], the MTD was 16 mg/kg. The “changes in plasma parameters (liver ALT, blood glucose, total protein)” value in series [3] (doses up to 4.5 mg/kg) was “did not produce noteworthy changes”. Further, the “effect on the animals' weight gain” value in series [3] (doses up to 4.5 mg/kg) is on record as “nor did they prevent the animals from gaining weight”. Moreover, the systemic toxicity result in series [3] (intravenous) is “low”. Besides, the “initial plasma concentration relative to the IC50 of tumor cell lines and primary patient colorectal cancer cells in vitro” value in series [4] (at MTD of 16 mg/kg) is over 10 fold. In addition, the half-life in series [4] (mouse, plasma, 16 mg/kg, NMRI mice, read-out: elimination half-life) was 4 to 5 h. In addition, the C0 in series [4] (mouse, plasma, at MTD of 16 mg/kg, NMRI mice, read-out: initial plasma concentration) is about 100 µM.
